Data on one compound can be found in patent publication US20250090557A1 (priority 2020, published 2025).

The test system of series [1] is SARS-CoV-2. Description: SARS-CoV-2 infection of K18-hACE2 transgenic mice, lung viral titer. The class given is in vivo, mouse. To be noted: 4 mg/kg per day intraperitoneally, 72 h post infection. The procedure: K18-hACE2 transgenic mice were infected with SARS-CoV-2 (10,000 PFU per mouse) intranasally and treated with Mito-MES (4 mg/kg per day intraperitoneally) (n=10) vs vehicle control (Ctrl) (saline 1% DMSO) (n=5 mice). Five mice (n=5) were treated with Mito-MES for 48 h before SARS-COV-2 infection and throughout the infection for 3 days (5 days in total) until mice were sacrificed 72 h post infection. Five mice (n=5) were treated with Mito-MES 8 h after the infection for 3 days (3 days in total) until mice were sacrificed 72 h post infection. The left lung was harvested from all mice, tissue was homogenized in mechanical dissociator and the supernatant was cryopreserved until it was used for viral titer. Viral titer was determined by two independent methods based on cytopathic effect (CPE) effect in Vero-E6 cells and based on an ELISA immunoassay that detected the presence of SARS-CoV-2 Spike S protein in Vero-E6 cells infected with lung supernatants from infected mice. FIG. 7-a summarizes the results of the viral replication by TCID50-assay based on CPE method. FIG. 7-b summarizes the results of the viral replication by TCID50-assay based on ELISA assay. Bars indicate mean±s.e.m.
The in vivo antiviral activity of Mito-MES was evaluated in mice. […] Specifically, K18-hACE2 transgenic mice, which express human ACE2, were infected with SARS-CoV-2.

For a further series, the system named is MAVS. The series can be described thus: MAVS protein levels in Calu3 cells (flow cytometry). As to conditions: total and SARS-CoV-2 infected Calu3 cells, data not shown. Format: cell-based, human.
Series [2] in a line: Toxicity and mutagenicity in mice. As to conditions: mouse, in vivo.
For series [3], the system named is SARS-CoV-2. Description: Post-exposure prophylaxis in two household-exposed parents (case report). Format: in vivo, human. The text has this: FIG. 8-a show the timeline of exposure, symptoms and diagnostic tests in household. Two parents [[…], A1 with history of chronic myelogenous leukemia (CML) and healthy parent 39 years, A2] were notified on Dec. 5, 2020 [defined as day 5 (D5)], that the schoolteacher (T1) of their child (C1) tested positive for SARS-CoV-2 and developed symptoms of Covid-19. C1 had 6-h exposure to T1 on November 30 (with masks) (D0). The family had no other exposure to any other person between November 20-30 (D-10 to D0) given Thanksgiving Day on November 26 (D-4). Several children and parents from the same school class were infected with Covid-19 within the first 2 weeks of December. C1 developed fever (100.4° F.;38° C.) and fatigue 2.5 days after exposure (DO) that lasted 3 days (D2-D5) and remained asymptomatic since then. The second child (C2) was asymptomatic until D12 when they developed fever (100.4° F.;38° C.), fatigue and coryza on D12-D14. A1 and A2 started Mito-MES on D4. […] A1, A2, C1 and C2 had fifteen (in total) negative NP SARS-CoV-2 PCR and each parent had 3 negative SARS-CoV-2 IgG serology over a period of 6 weeks (last NP PCR was on D42 and last SARS-CoV-2 IgG serology was on D45). The well-defined epidemiologic history around a major holiday and the timing (3-7 days) of development of symptoms in both children, confirmed that they both had Covid-19.
Two parents ([…], A1, and parent 39 years, A2) residing in Los Angeles, California were notified on Dec. 5, 2020 (defined as day 5 (D5); FIG. 8-a, C), that the schoolteacher (T1) of their child (C1) tested positive for SARS-CoV-2 and developed symptoms of Covid-19. C1 had 6-h exposure to T1 on November 30 (with masks) (DO). The family had no other exposure to any other person between November 20-30 (D-10 to DO) given Thanksgiving Day on November 26 (D-4). […]
One important consideration with COVID-19 testing is that it is often unclear how exactly the NP swab was obtained (by healthcare worker or not and whether the posterior or anterior nasopharynx were assessed). […]

The next series concerns Nrf2. Description: Nrf2 protein levels in Calu3 cells (flow cytometry). The class given is cell-based, human. To be noted: infected and uninfected Calu3, pretreatment, data not shown.
The conditions of series [4]: mice, tissues including liver and kidney, ≥10 days oral supplementation; cited from earlier work.
A further series deals with MX1. The class given is cell-based, human. To be noted: infected Calu3, vs vehicle treated.
In the next series the test system is Keap1. The series can be described thus: Keap1 protein levels in Calu3 cells (flow cytometry). To be noted: infected and uninfected Calu3, pretreatment, data not shown. Format: cell-based, human. Background: Flow cytometry measures light scatter and fluorescence of single cells or particles in a stream.
A further series relates to STING. Description: STING protein levels in Calu3 cells (flow cytometry). To be noted: SARS-CoV-2 infected Calu3 cells, data not shown. Format: cell-based, human.
The next series concerns IL-6. Format: cell-based, human.
The conditions of series [5]: humans, doses up to at least 80 mg/day for at least a year; cited from earlier work.
For series [6] the following is noted: cited from earlier work.

As for `COC1=C(OC)C(=O)C(CCCCCCCCCC[P+](c2ccccc2)(c2ccccc2)c2ccccc2)=C(C)C1=O.CS(=O)(=O)[O-]` [Mito-MES, 10-(4,5-dimethoxy-2-methyl-3,6-dioxo-1,4-cyclohexadienyl) decyl triphenylphosphonium methanesulfonate], the “lung viral titers (TCID50 by CPE and ELISA) compared to vehicle” value in the series on SARS-CoV-2 [1] is given as “viral titers were lower”. In addition, the MAVS protein levels entry in the series with MAVS is “did not modulate MAVS protein levels”. Besides, the “human equivalent dose relative to the doses administered to A1 and A2 (20 mg/day)” value in series [2] is recorded as “about 60 fold”. Moreover, in the series on SARS-CoV-2 [3] (both parents, 6 timepoints over 6 weeks), the “inflammation markers in plasma” value was “normal CRP, ferritin and IL-6 plasma levels”. In addition, the “plasma IgG to SARS-CoV-2 S1 protein” value in the series on SARS-CoV-2 [3] (each parent, three timepoints over 5 weeks) is “undetectable levels of plasma IgG to SARS-CoV-2 S1 protein”. Further, the “symptoms and virological/serological confirmation of infection” value with SARS-CoV-2 [3] (two parents, 20 mg/day oral, 6 weeks, repeated household exposure) is “remained asymptomatic and without virological and serological confirmation of infection”. The “protein levels of Nrf2” value with Nrf2 was “did not impact protein levels of Nrf2”. The accumulation in tissues in [4] was 50 to 700 pmol/g (wet weight). For the same compound, the MX1 protein levels entry with MX1 was “increased MX1 protein levels”. The “protein levels of Keap” value in the series with Keap1 was “reduced protein levels of Keap”. Further, the STING protein levels entry in the series on STING is given as “did not impact STING”. Moreover, in the series with IL-6, the “secretion of IL-6 resulting from SARS-CoV-2 infection (ELISA)” value is recorded as “attenuated the increase in secretion of IL-6”. Moreover, in series [5], the adverse events entry is “without any serious adverse events”. Further, the “average elevation of fasting plasma concentrations” value in series [6] (chronic supplementation about 40-80 mg/day, after about 10 days) was “about 5 ng/mL”. Also, in series [6] (humans, single 40 mg oral dose, after 24 h), the plasma concentration result is recorded as “about 2 ng/ml”.
